We go through 3 molecules from publication PMC3573846 (International journal of pharmaceutics, 2012).

Data set [1] has as its system P-gp and Bcrp1 at the mouse BBB. As to conditions: zosuquidar 25 mg/kg or Ko143 10 mg/kg i.v. 30 min prior to pazopanib 5 mg/kg i.v.; 60 min post dose.
In data set [2] the target is P-gp (MDR1), MDCK-MDR1 cell monolayers (Homo sapiens, UniProt P08183). As to the kind of experiment: Bi-directional transport across MDCK-MDR1 monolayers. Format: in vitro ADME.
Another data set addresses P-gp (MDR1) (Homo sapiens, UniProt P08183). The description is as above. Format: in vitro ADME. As to conditions: dog.
The nature of data set [3]: Brain accumulation and plasma pharmacokinetics of pazopanib in FVB mice. As to conditions: for half-life: 5 mg/kg.
A short description of data set [4]: Bi-directional transport across MDCK-WT monolayers. Format: in vitro ADME, canine. As to conditions: dog.
The next data set can be described thus: in vivo. As to conditions: male, mouse, 5 mg/kg.
For data set [5], the target named is T1, Bcrp1, MDCKII-Bcrp1 transfected cells (Mus musculus, UniProt Q7TMS5).
T1 sequence (Q7TMS5 1-657): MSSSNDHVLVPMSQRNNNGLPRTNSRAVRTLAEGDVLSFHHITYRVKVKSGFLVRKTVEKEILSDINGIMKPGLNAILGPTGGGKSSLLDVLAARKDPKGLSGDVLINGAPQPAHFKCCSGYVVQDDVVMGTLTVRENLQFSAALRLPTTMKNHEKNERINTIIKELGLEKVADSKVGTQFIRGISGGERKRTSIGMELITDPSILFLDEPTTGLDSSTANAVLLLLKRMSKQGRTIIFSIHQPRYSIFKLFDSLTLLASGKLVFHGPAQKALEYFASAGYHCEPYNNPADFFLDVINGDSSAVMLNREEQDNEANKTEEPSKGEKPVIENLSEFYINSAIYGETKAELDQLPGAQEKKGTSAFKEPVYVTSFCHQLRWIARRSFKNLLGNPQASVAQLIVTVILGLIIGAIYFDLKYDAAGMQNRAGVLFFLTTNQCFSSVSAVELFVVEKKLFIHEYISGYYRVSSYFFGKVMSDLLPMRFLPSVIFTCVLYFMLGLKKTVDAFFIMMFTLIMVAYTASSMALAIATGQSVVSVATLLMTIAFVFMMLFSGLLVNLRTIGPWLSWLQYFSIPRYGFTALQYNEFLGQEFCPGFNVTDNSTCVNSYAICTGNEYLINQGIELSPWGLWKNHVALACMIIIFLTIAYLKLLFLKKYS
In words: Cellular accumulation of pazopanib in MDCKII-Bcrp1 vs WT cells. Format: in vitro ADME, murine. As to conditions: 0.1 μM pazopanib, 60 min, no inhibitor.

Another data set concerns the target T2, Bcrp1 (Mus musculus, UniProt Q7TMS5).
T2 sequence (Q7TMS5 1-657): T1 sequence (Q7TMS5 1-657)
As to the kind of experiment: Bi-directional transport across MDCK-Bcrp1 monolayers. The class given is in vitro ADME, murine. As to conditions: mouse, Efflux ratio, MDCK-Bcrp1, 5 μM pazopanib, no inhibitor.

The target of the next data set is T3, Bcrp1 (murine) (Mus musculus, UniProt Q7TMS5).
T3 sequence (Q7TMS5 1-657): T1 sequence (Q7TMS5 1-657)
The description is as above. Format: in vitro ADME. As to conditions: dog.

Data set [6] addresses T4, Bcrp1, MDCK-Bcrp1 cell monolayers (Mus musculus, UniProt Q7TMS5).
T4 sequence (Q7TMS5 1-657): T1 sequence (Q7TMS5 1-657)
Described as above. The class given is in vitro ADME, murine.

For data set [7], the target named is P-gp (MDR1), MDCKII-MDR1 transfected cells (Homo sapiens, UniProt P08183). As to the kind of experiment: Cellular accumulation of pazopanib in MDCKII-MDR1 vs WT cells. The class given is in vitro ADME. The conditions noted are these: 0.1 μM pazopanib, 60 min, no inhibitor.
Sequence of P-gp (MDR1), MDCKII-MDR1 transfected cells (P08183 whole entry): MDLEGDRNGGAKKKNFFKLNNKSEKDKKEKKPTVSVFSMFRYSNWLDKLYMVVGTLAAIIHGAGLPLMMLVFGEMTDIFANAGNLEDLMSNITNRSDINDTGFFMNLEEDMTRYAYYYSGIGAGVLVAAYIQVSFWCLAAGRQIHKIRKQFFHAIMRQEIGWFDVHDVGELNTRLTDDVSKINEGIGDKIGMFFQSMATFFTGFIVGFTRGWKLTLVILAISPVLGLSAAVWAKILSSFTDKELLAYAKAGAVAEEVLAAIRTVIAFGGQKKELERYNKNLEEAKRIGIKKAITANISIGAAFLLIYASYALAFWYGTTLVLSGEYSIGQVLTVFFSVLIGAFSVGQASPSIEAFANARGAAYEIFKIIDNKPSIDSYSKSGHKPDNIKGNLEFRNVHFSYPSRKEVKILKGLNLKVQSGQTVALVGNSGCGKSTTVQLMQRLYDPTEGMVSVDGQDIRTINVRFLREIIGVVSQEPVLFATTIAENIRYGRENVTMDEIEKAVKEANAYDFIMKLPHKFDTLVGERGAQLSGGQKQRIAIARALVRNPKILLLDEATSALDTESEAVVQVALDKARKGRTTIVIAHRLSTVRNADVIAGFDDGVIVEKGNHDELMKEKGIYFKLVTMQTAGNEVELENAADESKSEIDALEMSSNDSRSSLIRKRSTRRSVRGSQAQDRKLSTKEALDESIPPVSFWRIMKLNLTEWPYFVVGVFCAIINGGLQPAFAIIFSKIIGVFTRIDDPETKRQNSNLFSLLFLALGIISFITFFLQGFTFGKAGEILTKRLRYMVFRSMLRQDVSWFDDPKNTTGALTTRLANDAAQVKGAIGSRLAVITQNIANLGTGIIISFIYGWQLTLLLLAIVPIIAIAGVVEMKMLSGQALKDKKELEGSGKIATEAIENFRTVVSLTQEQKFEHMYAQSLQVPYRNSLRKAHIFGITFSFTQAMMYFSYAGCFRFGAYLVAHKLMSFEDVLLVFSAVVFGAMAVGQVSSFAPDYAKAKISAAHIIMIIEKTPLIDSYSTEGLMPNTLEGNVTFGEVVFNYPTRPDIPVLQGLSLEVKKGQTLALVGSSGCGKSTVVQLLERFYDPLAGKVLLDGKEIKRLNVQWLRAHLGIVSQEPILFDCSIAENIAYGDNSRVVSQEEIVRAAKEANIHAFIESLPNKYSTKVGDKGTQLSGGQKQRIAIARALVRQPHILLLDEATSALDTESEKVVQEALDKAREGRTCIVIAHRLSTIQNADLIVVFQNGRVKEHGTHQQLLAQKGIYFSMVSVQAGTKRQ
The next data set has as its system P-gp at BBB. The conditions noted are these: mouse, in vivo; cited from earlier work.
Setting [8] is: in vitro MDCKII cell monolayers.
Where [9] appears, read: brain, pazopanib 5 mg/kg i.v. + elacridar (GF120918) 10 mg/kg.
The mark [10] stands for this setting: brain, pazopanib alone, 5 mg/kg i.v. bolus.
Where [11] appears, read: plasma, pazopanib 5 mg/kg i.v. + elacridar (GF120918) 10 mg/kg.
Where [12] appears, read: plasma, pazopanib alone, 5 mg/kg i.v. bolus.

Sequence of P-gp (MDR1) (P08183 whole entry): as above
Sequence of P-gp (MDR1), MDCK-MDR1 cell monolayers (P08183 whole entry): as above

For the molecule `COc1ccc2c3c([nH]c2c1)[C@H](CC(C)C)N1C(=O)[C@H](CCC(=O)OC(C)(C)C)NC(=O)[C@@H]1C3` [Ko143], the “Effect on pazopanib brain concentration” value in data set [1] is “did not significantly alter”.

In general, Papp A→B refers to the apparent permeability from the apical to the basolateral side of a cell layer. A low value points to slow passage. A word on the Papp B→A: it is the apparent permeability from the basolateral to the apical side of a cell layer. A word on the efflux ratio: it is the permeability from basolateral to apical divided by that in the opposite direction, in the common usage. One may read the half-life as how long it takes for the measured level to halve. In general, clearance refers to a measure of how efficiently the substance is removed, as volume per time. By Kp is commonly meant the ratio of the level in a tissue or fluid to that in plasma or blood. By Vd is commonly meant the apparent volume that relates the amount in the body to the concentration in plasma or blood. On to `Cc1ccc(Nc2nccc(N(C)c3ccc4c(C)n(C)nc4c3)n2)cc1S(N)(=O)=O` [Pazopanib], for which the Efflux ratio in [2] (MDCK-MDR1, 5 μM pazopanib + 1 μM zosuquidar (LY)) came out at 1.07; in data set [6] (MDCK-Bcrp1, 5 μM pazopanib, no inhibitor) it was 47.1. In addition, the “Substrate classification for P-gp” value in data set [2] (setting [8]) was “moderate substrate”. Besides, the Papp A→B at 240 min, 5 μM came out at 3.73 ± 0.17 ×10⁻⁶ cm/s on P-gp (MDR1) (MDCK-MDR1), 2.92 ± 0.33 ×10⁻⁶ cm/s in data set [4] and 0.2 ± 0.04 ×10⁻⁶ cm/s at Bcrp1 (murine). Further, the Papp B→A at 240 min, 5 μM at P-gp (MDR1) (MDCK-MDR1) worked out at 6.3 ± 0.56 ×10⁻⁶ cm/s; in data set [4] it was 3.1 ± 0.22 ×10⁻⁶ cm/s; on Bcrp1 (murine), 9.71 ± 0.09 ×10⁻⁶ cm/s. For the same molecule, the efflux ratio at 240 min, 5 μM amounted to 1.7 on P-gp (MDR1) (MDCK-MDR1, Efflux ratio, MDCK-MDR1, 5 μM pazopanib, no inhibitor); 1.06 in data set [4]; 47 at Bcrp1; 1.35 on Bcrp1 (murine) (with Ko143 200 nM, Efflux ratio, MDCK-Bcrp1, 5 μM pazopanib + 200 nM Ko143). The “AUC (0 → tlast)” value in data set [3] (setting [9]) is 0.042 ± 0.003 mg·min/mL; in data set [3] (setting [10]), 0.020 ± 0.001 mg·min/mL; in data set [3] (setting [11]), 1.029 ± 0.071 mg·min/mL; in [3] (setting [12]), 1.356 ± 0.043 mg·min/mL. In addition, the λz in [3] (setting [9]) came out at 0.25 h⁻¹; in [3] (plasma, pazopanib 5 mg/kg i.v. + elacridar (GF120918) 10 mg/kg i.v. 30 min prior), 0.38 h⁻¹. Moreover, the half-life in data set [3] (setting [10]) was 1.89 h; in [3] (setting [12]) it was 1.39 h; in “in vivo” (FVB, brain, iv) it was 1.9 h; in “in vivo” (FVB, plasma, iv), 1.4 h. For the same molecule, in data set [3] (setting [11]), the Volume of distribution was 0.39822 L/kg. Moreover, the clearance came to 2.49 mL/min/kg in data set [3] (setting [11]) and 2.38 mL/min/kg in the data set “in vivo” (FVB wild type, plasma, iv). The k el in the data set “in vivo” (FVB wild type, brain, iv) is 0.000103 s⁻¹; in “in vivo” (FVB wild type, plasma, iv), 0.000139 s⁻¹. Besides, in “in vivo” (FVB wild type, brain/plasma, iv), the Kp worked out at 0.015. In “in vivo” (FVB wild type, plasma, iv), this molecule registered a Vd of 0.286 L/kg. In “in vivo” (FVB, brain, intravenous), this molecule displayed a concentration at 15 min of 293 ± 52 ng/g. The same molecule had a concentration at 30 min in “in vivo” (FVB, brain, intravenous) of 157 ± 2 ng/g. Besides, the concentration at 60 min in the data set “in vivo” (FVB, brain, intravenous) stood at 95 ± 11 ng/g. In “in vivo” (FVB, brain/plasma, intravenous), this molecule gave a partition ratio (Kp) at 30 min of 0.0113 ± 0.005. The molecule also yielded a Kp at 60 min in the data set “in vivo” (FVB, brain/plasma, intravenous) of 0.009 ± 0.001. In addition, the “Pazopanib accumulation in Bcrp1 overexpressing cells relative to WT cells” value in data set [5] is “approximately 5 % of WT cells”. Further, the “Substrate classification for Bcrp1” value in data set [6] (setting [8]) is recorded as “high affinity substrate”. The “Pazopanib accumulation in MDR1 overexpressing cells relative to WT cells” value in [7] was 60 % of WT cells.

For the molecule `O[C@@H](COc1cccc2ncccc12)CN1CCN([C@@H]2c3ccccc3[C@@H]3[C@H](c4ccccc42)C3(F)F)CC1` [zosuquidar], in [1], the “Effect on pazopanib brain concentration” value is “did not significantly alter”. In the data set on P-gp at BBB, the “Enhanced brain penetration of paclitaxel upon co-administration” value was ~ 5.6 fold.
